From paper PMC10488051, “Screening, Synthesis and Biochemical Characterization of SARS-CoV-2 Protease Inhibitors” (International Journal of Molecular Sciences, 2023)
Read-outs that look alike come from different tables or passages of the source.

Columns and labels:
SARS-CoV-2 PL^pro = SARS-CoV-2 PL^pro (Severe acute respiratory syndrome coronavirus 2, UniProt P0DTD1); test: PL^pro enzymatic inhibition assay (FRET-based, Z-RLRGG-AMC substrate); format: biochemical; details: for Kd: enzymatic inhibition assay, 25 °C, pH 7.5
SARS-CoV-2 M^pro = SARS-CoV-2 M^pro (Severe acute respiratory syndrome coronavirus 2, UniProt P0DTD1); test: biochemical; format: biochemical
PL^pro = PL^pro (Severe acute respiratory syndrome coronavirus 2, UniProt P0DTD1); format: binding; details: no reducing agents; 1 h incubation at room temperature
M^pro = M^pro (Severe acute respiratory syndrome coronavirus 2, UniProt P0DTD1); details: cited from earlier work
SARS-CoV-2 = details: patients with mild-to-moderate COVID-19; cited from earlier work
[1] = Table 1 thiazole series, uncertainty approx. 1.8-fold of Kd
[2] = Table 2 disulfide compounds, PL^pro dialyzed to avoid DTT
[3] = Table 2 disulfide compounds, enzymatic inhibition assay, 25 °C, pH 7.5

Row | Structure (SMILES) | Kd (SARS-CoV-2 PL^pro; [1]) [µM] | Kd (SARS-CoV-2 M^pro) [µM] | other results
1 | O=C(O)CCN(C1=NC(=O)/C(=C/c2ccc(F)cc2)S1)c1cccc2ccccc12 [Compound 13c] | 8.6 | 8.6 | 
2 | NNC(=O)CCNc1ccccc1SSc1ccccc1NCCC(=O)NN [Compound 34] |  |  | Kd (SARS-CoV-2 PL^pro; [2]): 0.43 µM; Fold more potent for PL^pro than M^pro (SARS-CoV-2 PL^pro; ratio of Kd values): eight times; Kd (SARS-CoV-2 M^pro; [3]): 3.5 µM; Covalent binding to PL^pro by mass spectrometry (PL^pro): covalent binding of compound 34 to PLpro
3 | O=C1CCN(c2ccccc2SSc2ccccc2N2CCC(=O)NC2=O)C(=O)N1 [Compound 37] |  |  | Kd (SARS-CoV-2 PL^pro; [2]): 0.63 µM; Kd (SARS-CoV-2 M^pro; [3]): > 200 µM
4 | O=C(O)CCN(C1=NC(=O)C(=Cc2ccc(Br)cc2)S1)c1cccc2ccccc12 [Compound 13a] | 24 | 6.5 | Fold more potent for M^pro inhibition than PL^pro (SARS-CoV-2 M^pro; ratio of Kd values): 3.7 fold
5 | N#Cc1ccc(-c2csc(N(CCC(=O)O)c3ccc(N)cc3)n2)cc1 [Compound 30c] | 32 | > 200 | 
6 | O=C(O)CCN(c1nc(-c2ccc(Br)cc2)cs1)c1cccc2ccccc12 [Compound 6a] | ≥ 50 | > 200 | 
7 | Cc1nc(N(CCC(=O)O)c2cccc3ccccc23)sc1C(=O)O [Compound 18] | ≥ 50 | > 200 | 
8 | NC(=S)N(CCC(=O)O)c1cccc2ccccc12 [Compound 2] | 29 | > 200 | Fold increase in PL^pro binding affinity compared to compound 1 (SARS-CoV-2 PL^pro; vs starting compound 1): 2 fold
9 | O=C(CCNc1ccccc1SSc1ccccc1NCCC(=O)N/N=C/c1cccs1)N/N=C/c1cccs1 [Compound 35] |  |  | Kd (SARS-CoV-2 PL^pro; [2]): 2.5 µM; Kd (SARS-CoV-2 M^pro; [3]): > 200 µM
10 | O=C(O)CCN(c1nc(CO)cs1)c1cccc2ccccc12 [Compound 10] | 35 | > 200 | 
11 | O=C(O)CCN(C1=NC(=O)C(=Cc2cccs2)S1)c1cccc2ccccc12 [Compound 16] | ≥ 50 | > 200 | 
12 | C/C(=N/Nc1ccccc1)c1sc(N(CCC(=O)O)c2cccc3ccccc23)nc1C [Compound 23] | 75 | > 200 | 
13 | Cc1nc(N(CCC(=O)O)c2cccc3ccccc23)sc1C(=O)/C=C/c1cccc2ccccc12 [Compound 22] | 5.2 | 10 | Fold stronger PL^pro affinity than compound 4 (SARS-CoV-2 PL^pro; vs compound 4): more than 20 fold
14 | Cc1ccc(C)n1NC(=O)CCNc1ccccc1SSc1ccccc1NCCC(=O)Nn1c(C)ccc1C [Compound 36] |  |  | Kd (SARS-CoV-2 PL^pro; [2]): 1.9 µM; Kd (SARS-CoV-2 M^pro; [3]): > 200 µM
15 | CCN(CC)C(=S)SSC(=S)N(CC)CC [disulfiram] |  |  | Covalent interaction with cysteine residues of M^pro (M^pro): interact covalently with cysteine residues of M^pro
16 | Cc1ccc(N(CCC(=O)O)c2nc(-c3ccc(C#N)cc3)c(/C=N\NC(N)=S)s2)cc1 [Compound 28] | 8.8 | ≥ 50 | 
17 | O=C(O)CCN(c1nc(C(=O)/C=C/c2ccccc2)c(C(=O)/C=C/c2ccccc2)s1)c1cccc2ccccc12 [Compound 31] | ≥ 50 | ≥ 50 | 
18 | Cc1ccc(N(CCC(=O)O)c2nc(C)c(C(=O)C=Cc3ccc(Cl)cc3)s2)cc1 [Compound 25b] | 66 | > 200 | 
19 | Cc1ccc(N(CCC(=O)O)c2nc(-c3ccc(F)cc3)c(/C=N\Nc3ccccc3)s2)cc1 [Compound 27b] | ≥ 50 | > 200 | 
20 | Cc1ccc(N(CCC(=O)O)c2nc(-c3ccc(C#N)cc3)c(C=O)s2)cc1 [Compound 29] | > 200 | > 200 | 
21 | Cc1ccc(N(CCC(=O)O)c2nc(-c3ccc(Cl)cc3)c(/C=N\Nc3ccccc3)s2)cc1 [Compound 27a] | 35 | > 200 | 
22 | O=C(O)CCN(c1nc(-c2ccc([N+](=O)[O-])cc2)cs1)c1cccc2ccccc12 [Compound 6d] | 25 | 26 | 
23 | Cc1ccc(N(CCC(=O)O)c2nc(CNc3ccccc3)cs2)cc1 [Compound 26] | 16 | > 200 | Fold improvement of PL^pro affinity over compound 12 (SARS-CoV-2 PL^pro): 2 fold
24 | Nc1ccc(N(CCC(=O)O)c2nc(-c3ccc(C(F)(F)F)cc3)cs2)cc1 [Compound 30d] | ≥ 50 | > 200 | 
25 | O=C(O)CCN(c1nc(-c2ccc(Cl)cc2)cs1)c1cccc2ccccc12 [Compound 6b] | ≥ 50 | > 200 | 
26 | Cc1nc(N(CCC(=O)O)c2cccc3ccccc23)sc1C(=O)/C=C/c1ccccc1 [Compound 21a] | 110 | > 200 | 
27 | Cn1cnc(Cn2c(=O)[nH]/c(=N\c3cc4cn(C)nc4cc3Cl)n(Cc3cc(F)c(F)cc3F)c2=O)n1 [S-217622] |  |  | Antiviral efficacy in patients (SARS-CoV-2): rapid and favorable antiviral efficacy
